Consider one compound from the NIST ThermoML archive (doi:10.1021/acs.jced.9b00564).

For series [1] the following is noted: Crystal; DSC.
Series [2] in a line: Molar enthalpy of transition or fusion. Conditions: Crystal; DSC.

Molecules are shown by their SMILES. ± gives the expanded uncertainty stated by the source.

Regarding `O=[N+]([O-])c1ncccc1O` [2-nitropyridin-3-ol], the Triple point temperature in series [1] is reported as 342.77 ± 1.2 K. Also, in series [2], the “Molar enthalpy of transition or fusion” value is 5.27 ± 0.182 kcal/mol.
